Reference: PubChem BioAssay AID248 (DTP/NCI, 2004)
Values joined by “and” are separate entries in the source; they are usually repeats but may differ in a detail not shown here. Identical values can stand only once. Toxic doses and inconclusive results are not listed.

Test system: L1210 leukemia ip in BDF1 mice, survival T/C
Experiment: NCI In Vivo Anticancer Drug Screen. Data for tumor model L1210 Leukemia (intraperitoneal) in B6D2F1 (BDF1) mice
Conditions: endpoint: mean survival time, higher = longer survival
Method in brief: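 Survival endpoint. Drug-treated group vs vehicle group, expressed as T divided by C. Tumor passaged by transplantation.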

[1] = dose: 100.0 mg/kg/injection, schedule: Q04DX002 (ip), vehicle: Klucel (hydroxypropylcellulose) (HPC)
[2] = dose: 200.0 mg/kg/injection, schedule: Q04DX002 (ip), vehicle: Klucel (hydroxypropylcellulose) (HPC)
[3] = dose: 400.0 mg/kg/injection, schedule: Q04DX002 (ip), vehicle: Klucel (hydroxypropylcellulose) (HPC)
[4] = dose: 100.0 mg/kg/injection, schedule: Q01DX009 (ip), vehicle: Klucel (hydroxypropylcellulose) (HPC)
[5] = dose: 400.0 mg/kg/injection, schedule: Q01DX009 (ip), vehicle: Klucel (hydroxypropylcellulose) (HPC)
[6] = dose: 100.0 mg/kg/injection, schedule: Q04DX003 (ip), vehicle: Klucel (hydroxypropylcellulose) (HPC)
[7] = dose: 200.0 mg/kg/injection, schedule: Q01DX009 (ip), vehicle: Klucel (hydroxypropylcellulose) (HPC)
[8] = dose: 200.0 mg/kg/injection, schedule: Q04DX003 (ip), vehicle: Klucel (hydroxypropylcellulose) (HPC)
[9] = dose: 400.0 mg/kg/injection, schedule: Q04DX003 (ip), vehicle: Klucel (hydroxypropylcellulose) (HPC)
[10] = dose: 100.0 mg/kg/injection, schedule: Q01DX009 (ip), vehicle: saline
[11] = dose: 100.0 mg/kg/injection, schedule: Q01DX001 (ip), vehicle: saline
[12] = dose: 200.0 mg/kg/injection, schedule: Q01DX001 (ip), vehicle: saline
[13] = dose: 400.0 mg/kg/injection, schedule: Q01DX001 (ip), vehicle: saline

## CCCCCCCCCCCCCCCCCCNC(=O)N(C)Cc1ccccc1
[1]
  T/C: 99 % of control
[2]
  T/C: 96 % of control
[3]
  T/C: 96 % of control

## CCOC(=O)C1(c2ccccc2)CCN(CCC(=O)c2ccc(F)cc2)CC1
dose: 100.0 mg/kg/injection, schedule: Q01DX001 (ip), vehicle: Klucel (hydroxypropylcellulose) (HPC)
  T/C: 98 % of control
dose: 200.0 mg/kg/injection, schedule: Q01DX001 (ip), vehicle: Klucel (hydroxypropylcellulose) (HPC)
  T/C: 95 % of control

## COc1cccc2c1C(=O)c1c(O)c3c(c(O)c1C2=O)C[C@@](O)(C(=O)COC(=O)c1cccnc1)C[C@@H]3OC1CC(N)C(O)C(C)O1 (stereo partly drawn)
dose: 1.6 mg/kg/injection, schedule: Q01DX009 (ip), vehicle: saline
  T/C: 153 % of control
dose: 2.4 mg/kg/injection, schedule: Q01DX009 (ip), vehicle: saline
  T/C: 153 % of control

## Cc1cc(S(=O)(=O)F)ccc1NC(=O)/C=C/c1ccc([N+](=O)[O-])cc1
[4]
  T/C: 97 % of control
[5]
  T/C: 92 % of control

## COCCOCCOC(C)Oc1ccc(C(=O)OC)cc1 (stereo not drawn)
dose: 100.0 mg/kg/injection, schedule: Q04DX002 (ip), vehicle: saline
  T/C: 105 % of control
dose: 200.0 mg/kg/injection, schedule: Q04DX002 (ip), vehicle: saline
  T/C: 92 % of control
dose: 400.0 mg/kg/injection, schedule: Q04DX002 (ip), vehicle: saline
  T/C: 108 % of control

## COC(=O)C(CC(C)C)NC(=O)CN(C)C(=O)OCc1ccccc1 (stereo not drawn)
dose: 75.0 mg/kg/injection, schedule: Q04DX003 (sc), vehicle: olive oil, sesame oil, peanut oil
  T/C: 105 % of control
dose: 150.0 mg/kg/injection, schedule: Q04DX003 (sc), vehicle: olive oil, sesame oil, peanut oil
  T/C: 103 % of control
dose: 300.0 mg/kg/injection, schedule: Q04DX003 (sc), vehicle: olive oil, sesame oil, peanut oil
  T/C: 108 % of control

## CCOc1ccc2c(O)csc2c1
dose: 100.0 mg/kg/injection, schedule: Q01DX009 (ip), vehicle: saline with Tween-80
  T/C: 93 % of control
dose: 200.0 mg/kg/injection, schedule: Q01DX009 (ip), vehicle: saline with Tween-80
  T/C: 95 % of control
dose: 400.0 mg/kg/injection, schedule: Q01DX009 (ip), vehicle: saline with Tween-80
  T/C: 97 % of control

## CCCCC(=O)OC1CC(C)CCC1C(C)C (stereo not drawn)
[4]
  T/C: 98 % of control
[6]
  T/C: 93 % of control
[7]
  T/C: 106 % of control
[8]
  T/C: 96 % of control
[5]
  T/C: 98 % of control
[9]
  T/C: 93 % of control

## O=c1[nH]c2cc(F)ccc2o1
[4]
  T/C: 103 % of control
[6]
  T/C: 104 % of control
[7]
  T/C: 101 % of control
[8]
  T/C: 103 % of control
[5]
  T/C: 111 % of control
[9]
  T/C: 111 % of control

## CC(C)SP(=S)(C(C)C)C(C)C
dose: 100.0 mg/kg/injection, schedule: Q01DX001 (ip), vehicle: saline with Tween-80
  T/C: 115 % of control
dose: 200.0 mg/kg/injection, schedule: Q01DX001 (ip), vehicle: saline with Tween-80
  T/C: 102 % of control
dose: 400.0 mg/kg/injection, schedule: Q01DX001 (ip), vehicle: saline with Tween-80
  T/C: 94 % of control

## CN(N=O)C(=O)NC(=O)NCCCl
dose: 4.5 mg/kg/injection, schedule: Q01DX001 (ip), vehicle: carboxymethylcellulose (CMC)
  T/C: 118 % of control
dose: 9.0 mg/kg/injection, schedule: Q01DX001 (ip), vehicle: carboxymethylcellulose (CMC)
  T/C: 115 % of control
dose: 26.0 mg/kg/injection, schedule: Q01DX001 (ip), vehicle: carboxymethylcellulose (CMC)
  T/C: 124 % of control

## [O-][n+]1c(Cl)cccc1Cl
dose: 15.0 mg/kg/injection, schedule: Q01DX001 (ip), vehicle: carboxymethylcellulose (CMC)
  T/C: 103 % of control
dose: 30.0 mg/kg/injection, schedule: Q01DX001 (ip), vehicle: carboxymethylcellulose (CMC)
  T/C: 112 % of control
dose: 60.0 mg/kg/injection, schedule: Q01DX001 (ip), vehicle: carboxymethylcellulose (CMC)
  T/C: 105 % of control

## CCN=C(NCC)Nc1ccc(NC(=O)Nc2ccc(NC(=O)Nc3ccc(NC(=NCC)NCC)cc3)cc2)cc1
dose: 1.0 mg/kg/injection, schedule: Q01DX Z (ip), vehicle: carboxymethylcellulose (CMC)
  T/C: 97 % of control
dose: 2.0 mg/kg/injection, schedule: Q01DX Z (ip), vehicle: carboxymethylcellulose (CMC)
  T/C: 96 % of control
dose: 4.1 mg/kg/injection, schedule: Q01DX Z (ip), vehicle: carboxymethylcellulose (CMC)
  T/C: 102 % of control
dose: 8.3 mg/kg/injection, schedule: Q01DX Z (ip), vehicle: carboxymethylcellulose (CMC)
  T/C: 111 % of control

## CCCCCCCCCCCCCCCCCCCCCC1CCCC1
dose: 100.0 mg/kg/injection, schedule: Q04DX003 (ip), vehicle: other
  T/C: 96 % of control
dose: 200.0 mg/kg/injection, schedule: Q04DX003 (ip), vehicle: other
  T/C: 94 % of control
dose: 400.0 mg/kg/injection, schedule: Q04DX003 (ip), vehicle: other
  T/C: 96 % of control

## ClC(Cl)=C(Cl)C(Cl)=C(Cl)Cl
dose: 3.13 mg/kg/injection, schedule: Q04DX003 (ip), vehicle: Klucel (hydroxypropylcellulose) (HPC)
  T/C: 98 % of control
dose: 6.25 mg/kg/injection, schedule: Q04DX003 (ip), vehicle: Klucel (hydroxypropylcellulose) (HPC)
  T/C: 100 % of control
dose: 12.5 mg/kg/injection, schedule: Q04DX003 (ip), vehicle: Klucel (hydroxypropylcellulose) (HPC)
  T/C: 98 % of control
dose: 100.0 mg/kg/injection, schedule: Q04DX003 (ip), vehicle: carboxymethylcellulose (CMC)
  T/C: 101 % of control

## COC(=O)CCC(C)[N+](=O)[O-] (stereo not drawn)
[10]
  T/C: 112 % of control
dose: 200.0 mg/kg/injection, schedule: Q01DX009 (ip), vehicle: saline
  T/C: 104 % of control
dose: 400.0 mg/kg/injection, schedule: Q01DX009 (ip), vehicle: saline
  T/C: 98 % of control

## O=C(Nc1cccnc1)c1ccc([N+](=O)[O-])s1
dose: 50.0 mg/kg/injection, schedule: Q01DX005 (ip), vehicle: saline
  T/C: 102 % of control
dose: 100.0 mg/kg/injection, schedule: Q01DX005 (ip), vehicle: saline
  T/C: 117 % of control
dose: 400.0 mg/kg/injection, schedule: Q01DX005 (ip), vehicle: saline
  T/C: 173 % of control

## O=C(/C=C\c1ccccc1)OCc1ccccc1CN1CCCCC1
[1]
  T/C: 108 % of control
[2]
  T/C: 116 % of control
[3]
  T/C: 90 % of control

## Nc1ccc(I)cc1
dose: 100.0 mg/kg/injection, schedule: Q04DX003 (ip), vehicle: saline with Tween-80
  T/C: 104 % of control
dose: 200.0 mg/kg/injection, schedule: Q04DX003 (ip), vehicle: saline with Tween-80
  T/C: 109 % of control

## CC(C)(C)CC(C)(C)c1ccc(OCCOc2ccc(C(=O)O)cc2N)cc1
[11]
  T/C: 92 % of control
[12]
  T/C: 96 % of control

## CCC(CC)(CC)c1ccc2ccccc2c1
[11]
  T/C: 98 % of control
[12]
  T/C: 96 % of control
[13]
  T/C: 106 % of control

## NC(=O)C1CCCN1Cc1ccc2c(c1)OCO2 (stereo not drawn)
[11]
  T/C: 97 % of control
[12]
  T/C: 94 % of control
[13]
  T/C: 94 % of control

## COC(=O)c1ccc(SC(=O)N(C)C)cc1
[6]
  T/C: 91 % of control
[8]
  T/C: 96 % of control
[9]
  T/C: 91 % of control

## O=C(O)c1cc([N+](=O)[O-])cc([N+](=O)[O-])c1 (tested in a mixture with another compound)
dose: 3.13 mg/kg/injection, schedule: Q04DX002 (ip), vehicle: saline with Tween-80
  T/C: 100 % of control
dose: 6.25 mg/kg/injection, schedule: Q04DX002 (ip), vehicle: saline with Tween-80
  T/C: 106 % of control
dose: 25.0 mg/kg/injection, schedule: Q04DX002 (ip), vehicle: saline with Tween-80
  T/C: 96 % of control and 100 % of control
dose: 50.0 mg/kg/injection, schedule: Q04DX002 (ip), vehicle: saline with Tween-80
  T/C: 114 % of control

## C=CCc1cccc(CC=C)c1OCCN(CC)CC
dose: 25.0 mg/kg/injection, schedule: Q01DX009 (ip), vehicle: saline
  T/C: 98 % of control
dose: 50.0 mg/kg/injection, schedule: Q01DX009 (ip), vehicle: saline
  T/C: 105 % of control
[10]
  T/C: 95 % of control and 107 % of control

## CCC[As](=O)(O)C(C)C
dose: 100.0 mg/kg/injection, schedule: Q04DX003 (ip), vehicle: saline
  T/C: 97 % of control

## OCCCCCCCCCCO
dose: 100.0 mg/kg/injection, schedule: Q01DX009 (ip), vehicle: carboxymethylcellulose (CMC)
  T/C: 104 % of control
dose: 200.0 mg/kg/injection, schedule: Q01DX009 (ip), vehicle: carboxymethylcellulose (CMC)
  T/C: 106 % of control
dose: 400.0 mg/kg/injection, schedule: Q01DX009 (ip), vehicle: carboxymethylcellulose (CMC)
  T/C: 98 % of control
